Like-named read-outs stand apart in the source and are kept apart here.
How the values were obtained:
[1] = molecular target: GDP-bound KRAS wild-type protein (Homo sapiens, UniProt P01116); experiment: Binding to KRAS by surface plasmon resonance (SPR), dissociation constant KD
In short: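 Recombinant RAS proteins bearing a biotinylated Avi tag and loaded with GDP served as the captured ligand, recaptured fresh every cycle. Binding responses were referenced to an uncoated surface and a buffer-only blank cycle. Dissociation constants were obtained by 1:1 model fitting at 30°C.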

[2] = tested on: human lung cancer strain NCI-H441; experiment: NCI-H441 cell proliferation inhibitory activity (CellTiter-Glo, 4 days); format: cell-based; settings: read-out: NCl-H441 IC50
In short: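 Readout: […] after the ATP-based reagent. Compound: serial dilutions in dimethyl sulfoxide.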

[3] = molecular target: GDP-bound NRAS wild-type protein (Homo sapiens, UniProt P01111); experiment: Binding to NRAS by surface plasmon resonance (SPR), KD and KD ratio to KRAS
In short: (§1)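 GDP-bound biotin-Avi RAS captured at ~100–300 RU, 30°C, pH 7.4 HBS containing 10 µM GDP, 10 mM MgCl2, 1 mM DTT, 0.01% Tween 20 and 4% DMSO. KD by 1:1 fitting.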

HRAS wild-type protein = HRAS wild-type protein (Homo sapiens, UniProt P01112); experiment: Binding to HRAS by surface plasmon resonance (SPR), KD and KD ratio to KRAS
In short: as §1

[4] = ratio of KD for GDP-bound NRAS wild-type protein to KD for KRAS
[5] = ratio of KD for HRAS wild-type protein to KD for KRAS

GDP-bound NRAS wild-type protein, sequence (P01111 whole entry): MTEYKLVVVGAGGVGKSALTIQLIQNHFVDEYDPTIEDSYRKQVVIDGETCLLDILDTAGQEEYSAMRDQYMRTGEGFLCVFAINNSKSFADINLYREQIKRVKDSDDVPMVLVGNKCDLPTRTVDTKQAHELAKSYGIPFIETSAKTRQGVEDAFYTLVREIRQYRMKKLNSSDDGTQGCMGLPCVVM
GDP-bound KRAS wild-type protein, sequence (P01116 1-188 isoform P01116-2): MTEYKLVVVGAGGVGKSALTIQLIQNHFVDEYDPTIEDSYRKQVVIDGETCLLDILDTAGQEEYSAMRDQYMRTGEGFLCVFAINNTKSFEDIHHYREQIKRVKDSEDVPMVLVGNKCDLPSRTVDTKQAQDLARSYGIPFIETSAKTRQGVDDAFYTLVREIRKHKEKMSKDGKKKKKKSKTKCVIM
HRAS wild-type protein, sequence (P01112 whole entry): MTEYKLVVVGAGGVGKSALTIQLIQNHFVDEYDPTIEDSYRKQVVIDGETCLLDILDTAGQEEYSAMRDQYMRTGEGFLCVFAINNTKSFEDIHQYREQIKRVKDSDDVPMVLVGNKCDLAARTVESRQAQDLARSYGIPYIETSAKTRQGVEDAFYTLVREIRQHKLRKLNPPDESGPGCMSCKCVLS

Kd ([1]; 1:1 binding model) [nM] | IC50 ([2]; NCI-H441 cells, 4 days) [nM] | Kd ([1]; Single Cycle Kinetics) [nM] | Kd ([1]; Single Cycle Kinetics, 1:1 binding model) [nM] | IC50 ([2]; 50% proliferation inhibitory concentration, four days) [nM] | Compound | NRAS /KRAS [3, 4] | HRAS /KRAS (HRAS wild-type protein; [5]) | NRAS /KRAS ([3]; ratio of KD with respect to GDP-bound NRAS wild-type protein to KD with respect to KRAS) | HRAS /KRAS (HRAS wild-type protein; ratio of KD with respect to HRAS wild-type protein to KD with respect to KRAS)
0.23 | 21.3 |  |  |  | CCOC[C@H]1C(=O)N[C@@H]([C@@H](C)CC)C(=O)N(C)CC(=O)N(C)[C@H]2C/C=C\CCN(C2=O)[C@@H](Cc2ccc(C)cc2)C(=O)N(C)CC(=O)N[C@@H](CCc2cc(F)c(C(F)(F)F)c(F)c2)C(=O)N2C[C@H](OCC)C[C@H]2C(=O)NC2(CC(C)(C)C2)C(=O)N(C)[C@@H](C2CCCC2)C(=O)N(C)[C@H](C(=O)N(CC)CC)CC(=O)N1C [PP2408] | A (a compound having 10 or more and less than 20 is denoted as A) | A (a compound having 10 or more and less than 20 is denoted as A) |  | 
 | 15.3 | 0.31 |  |  | CCO[C@@H]1C[C@H]2C(=O)NC3(CC(C)(C)C3)C(=O)N(C)[C@@H](C3CCCC3)C(=O)N(C)[C@H](C(=O)N(C)C)CC(=O)N(C)[C@@H]([C@H](C)OC)C(=O)N[C@@H]([C@@H](C)CC)C(=O)N(C3CC3)CC(=O)N(C)[C@H]3C/C=C\CCN(C3=O)[C@@H](Cc3ccc(C(F)(F)F)cc3)C(=O)N(C)CC(=O)N[C@@H](CCc3cc(F)c(C(F)(F)F)c(F)c3)C(=O)N2C1 [PP3175] | A (a compound having 10 or more and less than 20 is denoted as A) | A (a compound having 10 or more and less than 20 is denoted as A) |  | 
0.97 | 132 |  |  |  | CCO[C@H](C)[C@@H]1NC(=O)[C@H](CC(C)C)N(C)C(=O)C[C@@H](C(=O)N(C)C)N(C)C(=O)[C@H](C2CCCC2)N(C)C(=O)C2(CC(C)(C)C2)NC(=O)[C@@H]2C[C@H](C)CN2C(=O)[C@H](CCc2ccc(C(F)(F)F)c(OC)c2)NC(=O)CN(C)C(=O)[C@H](Cc2ccc(C)cc2)N2CC/C=C\C[C@@H](C2=O)N(C)C(=O)[C@@H]2CCCN2C1=O [PP2418] | A (a compound having 10 or more and less than 20 is denoted as A) | B (a compound having 3 or more and less than 10 is denoted as B) |  | 
 |  |  | 0.19 | 103 | CCO[C@@H]1C[C@H]2C(=O)NC3(CCC3)C(=O)N(C)[C@@H](C3CCCC3)C(=O)N(C)[C@H](C(=O)N3CCC3)CC(=O)N(C)[C@@H](CC)C(=O)N[C@@H]([C@@H](C)CC)C(=O)N(C)CC(=O)N(C)[C@H]3C/C=C\CCN(C3=O)[C@@H](CC3CCC(F)(F)CC3)C(=O)N(C)CC(=O)N[C@@H](CCc3cc(F)c(C(F)(F)F)c(F)c3)C(=O)N2C1 [PP1444] |  |  | A (a compound having 10 or more and less than 20 is denoted as A) | A (a compound having 10 or more and less than 20 is denoted as A)
 | 60.2 | 1.3 |  |  | CCCO[C@@H]1C[C@H]2C(=O)NC3(CC(C)(C)C3)C(=O)N(C)[C@@H](C3CCCC3)C(=O)N(C)[C@H](C(=O)N(C)CC)CC(=O)N(C)[C@@H](COCC)C(=O)N[C@@H]([C@@H](C)CC)C(=O)N3CCC[C@H]3C(=O)N(C)[C@H]3C/C=C\CCN(C3=O)[C@@H](Cc3ccc(C)cc3)C(=O)N(C)CC(=O)N[C@@H](CCc3ccc(C(F)(F)F)c(OC)c3)C(=O)N2C1 [PP3467] | A (a compound having 10 or more and less than 20 is denoted as A) | A (a compound having 10 or more and less than 20 is denoted as A) |  | 
 | 67 | 1.9 |  |  | CCCO[C@@H]1C[C@H]2C(=O)NC3(CC(C)(C)C3)C(=O)N(C)[C@@H](C3CCCC3)C(=O)N(C)[C@H](C(=O)N(C)CC)CC(=O)N[C@@H](COCC)C(=O)N[C@@H]([C@@H](C)CC)C(=O)N(C3CC3)CC(=O)N(C)[C@H]3C/C=C\CCN(C3=O)[C@@H](Cc3ccc(C)cc3)C(=O)N(C)CC(=O)N[C@@H](CCc3cc(F)c(C(F)(F)F)c(F)c3)C(=O)N2C1 [PP3421] | A (a compound having 10 or more and less than 20 is denoted as A) | A (a compound having 10 or more and less than 20 is denoted as A) |  | 
 | 22.8 | 1.8 |  |  | CCC[C@H]1C(=O)N[C@@H](C23CC(C2)C3)C(=O)N2CCC[C@H]2C(=O)N(C)[C@H]2C/C=C\CCN(C2=O)[C@@H](Cc2ccc(C)cc2)C(=O)N(C)CC(=O)N[C@@H](CCc2ccc(C(F)(F)F)c(OC)c2)C(=O)N2C[C@H](OCC)C[C@H]2C(=O)N(C)C2(CCC2)C(=O)N(C)[C@@H](C2CCCC2)C(=O)N(C)[C@H](C(=O)N(C)C)CC(=O)N1C [PP3342] | A (a compound having 10 or more and less than 20 is denoted as A) | A (a compound having 10 or more and less than 20 is denoted as A) |  | 
1.2 | 23.4 |  |  |  | CCO[C@@H]1C[C@H]2C(=O)NC3(CC(C)(C)C3)C(=O)N(C)[C@@H](C(CC)CC)C(=O)N(C)[C@H](C(=O)N(C)C)CC(=O)N(C)[C@@H](COC)C(=O)N[C@@H]([C@@H](C)CC)C(=O)N(C3CC3)CC(=O)N(C)[C@H]3C/C=C\CCN(C3=O)[C@@H](CC3CCC(F)(F)CC3)C(=O)N(C)CC(=O)N[C@@H](CCc3cc(F)c(C(F)(F)F)c(F)c3)C(=O)N2C1 [PP2568] | A (a compound having 10 or more and less than 20 is denoted as A) | B (a compound having 3 or more and less than 10 is denoted as B) |  | 
 | 79.5 | 3 |  |  | CCCO[C@@H]1C[C@H]2C(=O)NC3(CC(C)(C)C3)C(=O)N(C)[C@@H](C3CCCC3)C(=O)N(C)[C@H](C(=O)N(C)CC)CC(=O)N[C@@H](COCC)C(=O)N[C@@H]([C@@H](C)CC)C(=O)N3CCC[C@H]3C(=O)N(C)[C@H]3C/C=C\CCN(C3=O)[C@@H](Cc3ccc(C)cc3)C(=O)N(C)CC(=O)N[C@@H](CCc3ccc(C(F)(F)F)c(Cl)c3)C(=O)N2C1 [PP3431] | A (a compound having 10 or more and less than 20 is denoted as A) | A (a compound having 10 or more and less than 20 is denoted as A) |  | 
0.62 | 4.8 |  |  |  | CCOC[C@H]1C(=O)N[C@@H]([C@@H](C)CC)C(=O)N2CCC[C@H]2C(=O)N(C)[C@H]2C/C=C\CCN(C2=O)[C@@H](Cc2ccc(C)cc2)C(=O)N(C)CC(=O)N[C@@H](CCc2cc(F)c(C(F)(F)F)c(F)c2)C(=O)N2C[C@H](OCC)C[C@H]2C(=O)NC2(CC(C)(C)C2)C(=O)N(C)[C@@H](C2CCCC2)C(=O)N(C)[C@H](C(=O)N(C)CC)CC(=O)N1C [PP2428] | A (a compound having 10 or more and less than 20 is denoted as A) | A (a compound having 10 or more and less than 20 is denoted as A) |  | 
0.67 | 21.9 |  |  |  | CCC[C@H]1C(=O)N[C@@H]([C@@H](C)CC)C(=O)N(C)CC(=O)N(C)[C@H]2C/C=C\CCN(C2=O)[C@@H](CC2CCC(F)(F)CC2)C(=O)N(C)CC(=O)N[C@@H](CCc2ccc(C(F)(F)F)c(Cl)c2)C(=O)N2C[C@H](OCC)C[C@H]2C(=O)NC2(CC(C)(C)C2)C(=O)N(C)[C@@H](C(CC)CC)C(=O)N(C)[C@H](C(=O)N(C)C)CC(=O)N1C [PP2498] | A (a compound having 10 or more and less than 20 is denoted as A) | A (a compound having 10 or more and less than 20 is denoted as A) |  | 
1.2 | 70.3 |  |  |  | CCCOC[C@H]1C(=O)N[C@@H]([C@@H](C)CC)C(=O)N(C)CC(=O)N(C)[C@H]2C/C=C\CCN(C2=O)[C@@H](Cc2ccc(C)cc2)C(=O)N(C)CC(=O)N[C@@H](CCc2cc(F)c(C(F)(F)F)c(F)c2)C(=O)N2C[C@H](OCC)C[C@H]2C(=O)NC2(CC(C)(C)C2)C(=O)N(C)[C@@H](CC2CCC2)C(=O)N(C)[C@H](C(=O)N(C)C)CC(=O)N1C [PP2752] | A (a compound having 10 or more and less than 20 is denoted as A) | A (a compound having 10 or more and less than 20 is denoted as A) |  | 
0.12 | 5.2 |  |  |  | CCOC[C@H]1C(=O)N[C@@H]([C@@H](C)CC)C(=O)N(C)CC(=O)N(C)[C@H]2C/C=C\CCN(C2=O)[C@@H](Cc2ccc(C(F)(F)F)cc2)C(=O)N(C)CC(=O)N[C@@H](CCc2ccc(C(F)(F)F)c(OC)c2)C(=O)N2C[C@H](OCC)C[C@H]2C(=O)N(C)C2(CCC2)C(=O)N(C)[C@@H](C(CC)CC)C(=O)N(C)[C@H](C(=O)N(C)C)CC(=O)N1C [PP2383] | A (a compound having 10 or more and less than 20 is denoted as A) | A (a compound having 10 or more and less than 20 is denoted as A) |  | 
 | 10.6 | 0.66 |  |  | CCC[C@H]1C(=O)N[C@@H]([C@@H](C)CC)C(=O)N2CCC[C@H]2C(=O)N(C)[C@H]2C/C=C\CCN(C2=O)[C@@H](Cc2ccc(C)cc2)C(=O)N(C)CC(=O)N[C@@H](CCc2ccc(C(F)(F)F)c(OC)c2)C(=O)N2C[C@H](OCC)C[C@H]2C(=O)OC2(CCC2)C(=O)N(C)[C@@H](C2CCCC2)C(=O)N(C)[C@H](C(=O)N(C)C)CC(=O)N1C [PP3386] | A (a compound having 10 or more and less than 20 is denoted as A) | B (a compound having 3 or more and less than 10 is denoted as B) |  | 
 | 137 | 3.4 |  |  | CCCO[C@@H]1C[C@H]2C(=O)NC3(CC(C)(C)C3)C(=O)N(C)[C@@H](C3CCCC3)C(=O)N(C)[C@H](C(=O)N(C)CC)CC(=O)N(C)[C@@H](COCC)C(=O)N[C@@H]([C@@H](C)CC)C(=O)N3C[C@@H](C)C[C@H]3C(=O)N(C)[C@H]3C/C=C\CCN(C3=O)[C@@H](Cc3ccc(C)cc3)C(=O)N(C)CC(=O)N[C@@H](CCc3ccc(C(F)(F)F)c(OC)c3)C(=O)N2C1 [PP3468] | B (a compound having 3 or more and less than 10 is denoted as B) | A (a compound having 10 or more and less than 20 is denoted as A) |  | 

From patent EP4603105A1, “PHARMACEUTICAL COMPOSITION CONTAINING CYCLIC COMPOUND HAVING SELECTIVE KRAS INHIBITORY EFFECT AGAINST HRAS AND NRAS” (CHUGAI SEIYAKU KABUSHIKI KAISHA, priority 2022, dated 2024)
